This is an account of results in patent US12421222B2 (AUGUSTINE THERAPEUTICS, priority 2021, dated 2025).

For the assay, the system named is acetylated tubulin (Lys40) in HeLa cells. Description: Acetylated α-tubulin measurement in vitro (immunocytochemistry). It is filed as cell-based. As to conditions: Homo sapiens, 6 hours incubation, acetylated tubulin (Lys40) by immunocytochemistry, read-out: IC50 (Tubulin deacetylation). The procedure: HeLa cells were cultured in UltraCulture serum-free medium (Lonza) supplemented with 2 mM glutamine (Lonza). Assays were performed at 96-well or 384-well format, differences in assay protocols are detailed in Table 6. Cells per well were plated and incubated overnight at 37° C. overnight in a humidified atmosphere containing 5% CO2. Cell density and seeding volumes are detailed in Table 6. Compounds (dissolved in 100% DMSO) or DMSO (vehicle) were added manually by diluting them in culture medium at 10× final assay concentration and adding 10 μL to cells (96-well protocol). Alternatively, 50 nL compound was added directly to the cell culture using the Echo650 (Labcyte) (384-well protocol). In this assay, the final assay concentration of DMSO is 0.1%-0.4%. Trichostatin A (TSA) was used as a positive control. Cells were incubated with compounds at 37° C. in a humidified atmosphere containing 5% CO2 for 6 hours. Levels of acetylated tubulin (Lys40) were assessed by immunocytochemistry using target-specific antibodies. Cells were fixed with 4% PFA at RT as detailed in Table 6. After 2-3 wash steps with PBS, cells were permeabilized with 0.5% Triton in PBS at RT for 10 minutes followed by 1-2 washes with PBS. To avoid non-specific antibody staining, cells were blocked with 3% BSA in PBS at room temperature for 1 hour. […] Cells were washed 2-3 times with PBS and labelled for 1 h at RT with goat anti-mouse conjugated with Alexa 647 (Thermofisher) and goat anti-rabbit conjugated with Alexa 555 (Thermofisher) secondary antibodies, diluted in 1% BSA to a final concentration of 1:1000. Simultaneously, nuclei were stained with 1:10000-1:15000 Hoechst (Thermofisher). Incubation time and temperature of the primary antibodies are detailed in Table 6. Cells were washed 2-3 times with PBS and they were imaged with the Operetta CLS or Opera Phenix (PerkinElmer). Imaging is further detailed in Table 6. For imaging analysis, the Harmony analysis software (PerkinElmer) was used. Cytoplasmic (defined by total α-tubulin staining) intensities per well were used for α-tubulin (acetylated and total) quantification. Intensities were measured per cell and then averaged per well. Mean intensity levels of acetylated tubulin were normalized to the mean intensity levels of total tubulin. The changes in acetylated tubulin were normalized for each plate using GraphPad Prism software: tubulin acetylation in vehicle (DMSO)-treated cells were set to 0% while tubulin acetylation in TSA-treated cells were set to 100%. EC50 values were calculated using the log(inhibitor) vs. response—Variable slope (four parameters) nonlinear regression in GraphPad Prism software.

On to `Cn1ncc2c(SCC(=O)c3ccc(CNC(=O)CO)s3)nc(C(F)(F)F)nc21` [Example 74, 2-hydroxy-N-((5-(2-((1-methyl-6-(trifluoromethyl)-1H-pyrazolo[3,4-d]pyrimidin-4-yl)thio)acetyl)thiophen-2-yl)methyl)acetamide], for which the IC50 fell in the range of 0.1 to 0.5 µM. Next, `Cc1nc(SCC(=O)c2ccc(CNC(=O)CO)s2)c2cc(C(F)(F)F)ccc2n1` [Example 76, 2-hydroxy-N-((5-(2-((2-methyl-6-(trifluoromethyl)quinazolin-4-yl)thio)acetyl)thiophen-2-yl)methyl)acetamide]: at most 0.1 µM.

As to `Cc1nc(SCC(=O)c2ccc(CNC(=O)CO)s2)c2cc(OC3CC3)ccc2n1` [Example 77, N-((5-(2-((6-cyclopropoxy-2-methylquinazolin-4-yl)thio)acetyl)thiophen-2-yl)methyl)-2-hydroxyacetamide], the IC50 was in the range of 0.1 to 0.5 µM.

As for `Cc1nc(SCC(=O)c2ccc(CNC(=O)CO)s2)c2cc(NCC3CC3)ccc2n1` [Example 78, N-((5-(2-((6-((cyclopropylmethyl)amino)-2-methylquinazolin-4-yl)thio)acetyl)thiophen-2-yl)methyl)-2-hydroxyacetamide], the IC50 is 0.1 to 0.5 µM.

As for `O=C(CO)NCc1ccc(C(=O)CSc2nc(C(F)(F)F)nc3nn(C4CC4)cc23)s1` [Example 79, N-((5-(2-((2-cyclopropyl-6-(trifluoromethyl)-2H-pyrazolo[3,4-d]pyrimidin-4-yl)thio)acetyl)thiophen-2-yl)methyl)-2-hydroxyacetamide], the IC50 was at most 0.1 µM. Consider `COc1ccc2nc(C(F)(F)F)nc(SCC(=O)c3ccc(CNC(=O)CO)s3)c2c1` [Example 80, 2-hydroxy-N-((5-(2-((6-methoxy-2-(trifluoromethyl)quinazolin-4-yl)thio)acetyl)thiophen-2-yl)methyl)acetamide], for which the IC50 was 0.1 to 0.5 µM. `Cc1nc(SCC(=O)c2ccc(CNC(=O)CO)s2)c2cc(N3CCOCC3)ccc2n1` [Example 81, 2-hydroxy-N-((5-(2-((2-methyl-6-morpholinoquinazolin-4-yl)thio)acetyl)thiophen-2-yl)methyl)acetamide]: the IC50 lay in the range of 0.1 to 0.5 µM. As to `Cc1nc(SCC(=O)c2ccc(CNC(=O)CO)s2)c2cc(N3CCCCC3)ccc2n1` [Example 82, 2-hydroxy-N-((5-(2-((2-methyl-6-(piperidin-1-yl)quinazolin-4-yl)thio)acetyl)thiophen-2-yl)methyl)acetamide], the IC50 is at most 0.1 µM. Turning to `Cc1nc(SCC(=O)c2ccc(CNC(=O)CO)s2)c2cc(N3CCCOCC3)ccc2n1` [Example 83, 2-hydroxy-N-((5-(2-((2-methyl-6-(1,4-oxazepan-4-yl)quinazolin-4-yl)thio)acetyl)thiophen-2-yl)methyl)acetamide], the IC50 was at most 0.1 µM.

Take `Cc1nc(SCC(=O)c2ccc(CNC(=O)CO)s2)c2cc(N3CCC(F)(F)C3)ccc2n1` [Example 84, N-((5-(2-((6-(3,3-difluoropyrrolidin-1-yl)-2-methylquinazolin-4-yl)thio)acetyl)thiophen-2-yl)methyl)-2-hydroxyacetamide]: the IC50 was at most 0.1 µM. For the compound `Cc1nc(SCC(=O)c2ccc(CNC(=O)CO)s2)c2cc(N3CCN(C)CC3)ccc2n1` [Example 85, 2-hydroxy-N-((5-(2-((2-methyl-6-(4-methylpiperazin-1-yl)quinazolin-4-yl)thio)acetyl)thiophen-2-yl)methyl)acetamide], the IC50 was at most 0.1 µM.

For `Cn1ncc2c(SCC(=O)c3ccc(C4CCN(C(=O)CO)C4)s3)ncnc21` (stereo not drawn) [Example 86, 2-hydroxy-1-(3-(5-(2-((1-methyl-1H-pyrazolo[3,4-d]pyrimidin-4-yl)thio)acetyl)thiophen-2-yl)157yrrolidine-1-yl)ethan-1-one], the IC50 lay within 1 to 3.33 µM.

As for `Cn1ncc2c(SCC(=O)c3ccc(CNS(C)(=O)=O)s3)ncnc21` [Example 87], the IC50 was 1 to 3.33 µM.

As for `CN(Cc1ccc(C(=O)CSc2ncnc3c2cnn3C)s1)S(=O)(=O)C1CC1` [Example 91, N-methyl-N-((5-(2-((1-methyl-1H-pyrazolo[3,4-d]pyrimidin-4-yl)thio)acetyl)thiophen-2-yl)methyl)cyclopropanesulfonamide], the IC50 was above 3.33 µM.

As to `CS(=O)(=O)N1CCC(c2ccc(C(=O)CSc3nc(C(F)(F)F)nc4ccccc34)s2)C1` (stereo not drawn) [Example 95, 1-(5-(1-(methylsulfonyl)161yrrolidine-3-yl)thiophen-2-yl)-2-((2-(trifluoromethyl)quinazolin-4-yl)thio)ethanone], the IC50 is 0.5 to 1 µM. In the case of `Cc1nc(SCC(=O)c2ccc(CNS(C)(=O)=O)s2)c2ccccc2n1` [Example 97, N-((5-(2-((2-methylquinazolin-4-yl)thio)acetyl)thiophen-2-yl)methyl)methanesulfonamide], the IC50 was in the range of 1 to 3.33 µM.

`CS(=O)(=O)NCCc1ccc(C(=O)CSc2nc(C(F)(F)F)nc3ccccc23)s1` [Example 98, N-(2-(5-(2-((2-(trifluoromethyl)quinazolin-4-yl)thio)acetyl)thiophen-2-yl)ethyl)methanesulfonamide]: the IC50 lay within 1 to 3.33 µM. Turning to `Cc1nc(SCC(=O)c2ccc(CNC(=O)CO)s2)c2cc(C3CC3)ccc2n1` [Example 106, N-((5-(2-((6-cyclopropyl-2-methylquinazolin-4-yl)thio)acetyl)thiophen-2-yl)methyl)-2-hydroxyacetamide], the IC50 was in the range of 0.1 to 0.5 µM. With `Cc1cc2nc(C(F)(F)F)nc(SCC(=O)c3ccc(CNC(=O)CO)s3)n2n1` [Example 107, 2-hydroxy-N-((5-(2-((7-methyl-2-(trifluoromethyl)pyrazolo[1,5-a][1,3,5]triazin-4-yl)thio)acetyl)thiophen-2-yl)methyl)acetamide], the IC50 is 0.1 to 0.5 µM.

Turning to `COc1cc(F)c2nc(C)nc(SCC(=O)c3ccc(CNC(=O)CO)s3)c2c1` [Example 108, N-((5-(2-((8-fluoro-6-methoxy-2-methylquinazolin-4-yl)thio)acetyl)thiophen-2-yl)methyl)-2-hydroxyacetamide], the IC50 was in the range of 0.1 to 0.5 µM. Next, `COc1ccc2nc(C)nc(SCC(=O)c3ccc(CN(C)C(=O)CO)s3)c2c1` [Example 109, 2-hydroxy-N-((5-(2-((6-methoxy-2-methylquinazolin-4-yl)thio)acetyl)thiophen-2-yl)methyl)-N-methylacetamide]: 0.1 to 0.5 µM; `Cc1nc(SCC(=O)c2ccc(CNC(=O)C3CC3(F)F)s2)c2cccnc2n1` (stereo not drawn) [Example 110, 2,2-difluoro-N-((5-(2-((2-methylpyrido[2,3-d]pyrimidin-4-yl)thio)acetyl)thiophen-2-yl)methyl)cyclopropane-1-carboxamide]: at most 0.1 µM; `Cn1cc2c(SCC(=O)c3ccc(CNC(=O)C4CC4(F)F)s3)nc(C(F)(F)F)nc2n1` (stereo not drawn) [Example 111, 2,2-difluoro-N-((5-(2-((2-methyl-6-(trifluoromethyl)-2H-pyrazolo[3,4-d]pyrimidin-4-yl)thio)acetyl)thiophen-2-yl)methyl)cyclopropane-1-carboxamide]: 0.1 to 0.5 µM.

`O=C(CO)NCc1ccc(C(=O)CSc2nc(C(F)(F)F)nc3cc(C4CC4)nn23)s1` [Example 112, N-((5-(2-((7-cyclopropyl-2-(trifluoromethyl)pyrazolo[1,5-a][1,3,5]triazin-4-yl)thio)acetyl)thiophen-2-yl)methyl)-2-hydroxyacetamide]: the IC50 lay within 0.1 to 0.5 µM.

For orientation: IC50 means the point on the concentration scale where inhibition reaches its midpoint.
